Test results taken from ChEMBL document CHEMBL1201862, “PubChem BioAssay data set” (2004).
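Results reflect a 48-hour exposure of cells in 96-well plates to compound at five concentrations. GI50 is the concentration that inhibits growth by half.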 Activity calls are given as the source filed them. Rule as the data show it: active = GI50 up to about 1.1 µM and inactive = higher.

Experiments:
Assay in all cases: DTP human tumour cell line panel, 48 h
UACC-257 = system: UACC-257
NCI-H522 = system: NCI-H522
COLO 205 = system: COLO 205
ACHN = system: ACHN
MCF7 = system: MCF7
EKVX = system: EKVX
MDA-MB-435 = system: MDA-MB-435
MOLT-4 = system: MOLT-4
Malme-3M = system: Malme-3M
SK-MEL-28 = system: SK-MEL-28
HCT-116 = system: HCT-116
HT-29 = system: HT-29
NCI-H226 = system: NCI-H226
SK-MEL-2 = system: SK-MEL-2
OVCAR-5 = system: OVCAR-5
SK-OV-3 = system: SK-OV-3
U-251 = system: U-251
HL-60 = system: HL-60
IGROV-1 = system: IGROV-1
RXF 393 = system: RXF 393

Measured: GI50

C/C(=N\O)C1CC(CC(=O)O)C1(C)C (centres undefined)
inactive: UACC-257 > 100 µM | NCI-H522 > 100 µM | COLO 205 > 100 µM | ACHN > 100 µM | MCF7 > 100 µM | EKVX > 100 µM | MDA-MB-435 > 100 µM | MOLT-4 > 100 µM | Malme-3M > 100 µM | SK-MEL-28 > 100 µM | HCT-116 > 100 µM | HT-29 > 100 µM | NCI-H226 > 100 µM | SK-MEL-2 > 100 µM | OVCAR-5 > 100 µM | SK-OV-3 > 100 µM | U-251 > 100 µM | HL-60 > 100 µM | IGROV-1 > 100 µM | RXF 393 > 100 µM

C[Si](C)(C)OC1(C#N)c2ccccc2CCCC12CCCC2 (centres undefined)
inactive: UACC-257 21.4 µM | NCI-H522 21.9 µM | COLO 205 37.1 µM | ACHN 30.1 µM | MCF7 30.1 µM | EKVX 31.3 µM | MDA-MB-435 44.1 µM | MOLT-4 23.1 µM | Malme-3M 39.4 µM | SK-MEL-28 44.5 µM | HCT-116 26.6 µM | HT-29 27.8 µM | NCI-H226 > 100 µM | SK-MEL-2 18.5 µM | OVCAR-5 > 100 µM | SK-OV-3 > 100 µM | U-251 29.4 µM | HL-60 17.8 µM | IGROV-1 43.3 µM | RXF 393 26.5 µM

N=c1c2c(=S)n(-c3ccccc3)c(=S)n(-c3ccccc3)c2nc(SCCCN2CCN(c3cccc(Cl)c3)CC2)n1-c1ccccc1
inactive: UACC-257 > 100 µM | NCI-H522 > 100 µM | COLO 205 > 100 µM | ACHN > 100 µM | MCF7 53.2 µM | EKVX > 100 µM | MDA-MB-435 73.8 µM | MOLT-4 > 100 µM | Malme-3M > 100 µM | SK-MEL-28 > 100 µM | NCI-H226 98.6 µM | SK-MEL-2 62.8 µM | OVCAR-5 26.4 µM | SK-OV-3 > 100 µM | U-251 > 100 µM | HL-60 > 100 µM | IGROV-1 97.7 µM | RXF 393 > 100 µM

CCN(CC)CCOc1ccc(N2Cc3cc(OC)c(OC)cc3C2=O)cc1
inactive: UACC-257 > 100 µM | NCI-H522 > 100 µM | COLO 205 > 100 µM | ACHN > 100 µM | MCF7 > 100 µM | EKVX > 100 µM | MDA-MB-435 > 100 µM | MOLT-4 > 100 µM | Malme-3M > 100 µM | SK-MEL-28 > 100 µM | HCT-116 > 100 µM | HT-29 > 100 µM | NCI-H226 > 100 µM | SK-MEL-2 > 100 µM | OVCAR-5 > 100 µM | SK-OV-3 > 100 µM | U-251 > 100 µM | HL-60 > 100 µM | IGROV-1 > 100 µM | RXF 393 > 100 µM

S=C1SC(=N\c2ccccc2)/C(=N/c2ccccc2)N1c1ccccc1
inactive: NCI-H522 > 100 µM | COLO 205 > 100 µM | MCF7 > 100 µM | MDA-MB-435 > 100 µM | MOLT-4 > 100 µM | Malme-3M 45.9 µM | SK-MEL-28 > 100 µM | HCT-116 83.9 µM | HT-29 87.7 µM | NCI-H226 > 100 µM | SK-MEL-2 > 100 µM | OVCAR-5 > 100 µM | SK-OV-3 > 100 µM | U-251 90.8 µM | HL-60 > 10 µM | IGROV-1 > 100 µM | RXF 393 > 100 µM

O=C(c1ccco1)C1CC(c2c(O)ccc3ccccc23)=NN1 (centres undefined)
inactive: UACC-257 20.6 µM | NCI-H522 4.2 µM | COLO 205 6.37 µM | ACHN 12.5 µM | MCF7 3.15 µM | EKVX 13.2 µM | MDA-MB-435 4.55 µM | MOLT-4 12.1 µM | Malme-3M 16 µM | SK-MEL-28 21 µM | HT-29 11.8 µM | NCI-H226 15.2 µM | SK-MEL-2 16.6 µM | OVCAR-5 14.9 µM | SK-OV-3 21 µM | U-251 14.7 µM | HL-60 13.5 µM | IGROV-1 13.3 µM | RXF 393 17.4 µM
